“And” between values parts separate entries of the source, which are not always exact repeats. Equal entries are not always repeated.
Experiments:
[1] = in vivo; details: for AUC(0-t): AUC (0-100 h)
Protocol: In Example 10, the pharmacokinetics of the compound of Formula I in dogs following single intravenous and oral administration was evaluated and the oral bioavailability of five different salts of the compound of Formula I was compared. The compound of Formula I was administered to dogs as described in Table 12. The doses are expressed in mg of free base.
The experiments were performed in 15 male dogs (bodyweight 11-18 kg) from RCC Ltd., Biotechnology and Animal Breeding Division, Wolferstrasse 4, CH-4414, Fullinsdorf, Switzerland. The animals were housed under standard laboratory conditions throughout the study period.
For the pharmacokinetic studies, 1 mL blood samples were collected from the cephalic vein of the dogs via catheter at 15, 30 min and at 1, 2, 3, 4, 6, 8, 24, 32, 48, 56, 72, 80, 96, and 100 (or 104) hours following oral dosing. After intravenous administration, blood samples were collected at 5, 15, 30 min and 1, 2, 3, 4, 6, 8, 24, 32, 48, 56, 75, 102, 120, 128, 144, 152, 168, 176, 192, and 200 hours. Collection tubes contained EDTA/NaF as anticoagulant and stabilizer. After centrifugation, plasma was removed and stored deep frozen at approximately −20° C. until analysis using a specific LC-MS method.
Aliquots of 40 μL plasma were mixed with 50 μL buffer at pH 5, 50 μL internal standard of Formula I (1 μg/mL in 1-chlorobutane) and 250 μL butylacetate and then shaken for 10 min. After centrifugation, 200 μL of the supernatant were evaporated to dryness at 45° C. under a stream of nitrogen. The residue was reconstituted with 200 μL acetonitrile/1% formic acid in water (30/70, v/v). Aliquots of 30 μL were injected onto the analytical column (Waters, Symmetry C8, 2.1×150 mm, 5 μm).
Separation occurred by gradient elution using a solvent A (acetonitrile) and solvent B (1% formic acid in water). The flow rate was 0.3 mL/min and the gradient elution was: […]
The sample passed to the ion-spray interface of the single quadrupole mass spectrometer. Selected ion monitoring mode (SIM) was used for mass spectrometric detection. Quantification was based on peak area ratios and calibration curve established between 2 and 5000 ng/mL.
To a 100 μL sample aliquot were added 200 μL of a mixture of acetonitrile/ethanol containing the deuterated internal standard, to precipitate plasma proteins. After vortex mixing and centrifugation, aliquots of the supernatants were transferred to 96-deel-well plates and injected for analysis (5 μL). Following enrichment and cleanup on the trapping column, the analyte was eluted and separated by gradient elution on a 2.1*30 mm analytical column (XTerra MS C18). The effluent from the analytical column was passed to the turbo ion spray vie a divert valve.
Calibration standards were prepared in dog plasma. The calibration range was from 10-5000 ng/mL. In each analytical series, a set of calibration standards was worked up and run with the unknowns. Calibration was then performed by computing a weighted (1/X^2) least-squares linear regression line of the measured peak area ratios (Y) (analyte to internal standard) versus the spiked concentrations (X). The drug concentrations of the unknown samples were then calculated from this regression line (UNICHROM). The performance of the analytical procedure during sample analysis was monitored. With each analytical series, quality control (QC) samples in dog plasma, spiked with known amounts of the analyte, were run together with the study samples.
The pharmacokinetic parameters were estimated by non-compartmental analysis, using the pharmacokinetic evaluation program WinNOnlin [1]. AUC(0-inf.) was calculated applying the linear trapezoidal rule and extrapolation to infinity using the apparent elimination rate constant kz and the calculated concentration at the last measurable time point. AUClast values were calculated by linear trapezoidal rule from time zero to time of last measureable time point.

[2] = in vivo
Protocol: In Example 11, the pharmacokinetics of the compound of Formula I was evaluated following single intravenous, intraperitoneal, and oral administration to rats to compare the oral bioavailability of two different formulations and to measure the brain penetration after intravenous administration.
A solution of the compound of Formula I (4.7 mg/mL) in water and a suspension of the compound of Formula I (5 mg/mL) in SSV (standard suspension vehicle) were prepared.
The experiments were performed in 20 male rats (Strain RoRo Fuellinsdorf, body weight 230-290 g) from Biological Research Laboratories, Fuellinsdorf, Switzerland. The animals were housed under standard laboratory conditions throughout the study period. After an acclimatization period of 3 days, the rats were implanted with chronic jugular catheters under pentobarbital anesthesia. After surgery the rats were on recovery for 2 days before dosing. They had free access to water and food during the experiment.
For the pharmacokinetic studies, 0.4 mL blood samples were collected at different time points, up to 72 hours post-dose, from the jugular vein of the rats via catheter. For the study of brain and CSF penetration, 2 mL blood samples as well as CSF and brain were collected between 0.3 and 2 hours post-dose from one rat at each time point. Collection tubes contained EDTA/NAF as anticoagulant and stabilizer, respectively. After centrifugation, plasma was removed. Plasma, CSF and brain samples were stored deep-frozen at approximately −20° C. until analysis using a specific LC-MS method.
Aliquots of plasma samples of 40 μL were mixed with 50 μL buffer pH 9, 50 μL of a Formula I internal standard (1 μg/mL 1-chlorobutane) and 250 μL butylacetate and then shaken for 10 min. After centrifugation, 200 μL of the supernatant were evaporated to dryness at 45° C. under a stream of nitrogen. The residue was reconstituted with 200 μL acetonitrile/1% formic acid in water (30/70, v/v). An aliquot of 30 μL was injected onto an analytical column (Waters, Symmetry C8, 2.1×150 mm, 5 μm).
The sample passed to the ion-spray interface of the single quadrupole mass spectrometer. Selected ion monitoring mode (SIM) was used for mass spectrometric detection. Quantification was based on peak area ratios and calibration curve established by weighted (1/x^2) linear regression. The calibration curve was established between 5 and 5000 ng/mL using dog plasma as matrix. Data acquisition and integration of SIM chromatograms were performed using MacQuan (version 1.6) from Perkin-Elmer Sciex.
The pharmacokinetic parameters were estimated by non-compartmental analysis, using the pharmacokinetic evaluation program WinNOnlin [1]. AUC(0-inf) was calculated applying the linear trapezoidal rule and extrapolation to infinity using the apparent elimination rate constant λz and the calculated concentration at the last measurable time point. AUClast values were calculated by linear trapezoidal rule from time zero to time of last measureable time point. Cmax, C(t), and Tmax were determined directly from the plasma concentration-time profiles. The apparent terminal half-life (T1/2) was derived from the equation: T1/2=ln2/λz. Means of the half-life were calculated by harmonic means. Plasma clearance, CL, was calculated as D/AUC(0-inf.). Volume of distribution, Vz, was calculated as CL/λz. The absolute bioavailability was calculated from plasma concentration data as follows: […]
A solution of Formula I (hydrochloride salt) was administered intravenously at a dose of 9.4 mg/kg to 2 male rats in two subsequent experiments. In both studies, blood samples were obtained at 0.083, 0.25, 0.5, 1, 2, 4, 6, 8, and 24 h after intravenous application and in addition at 48 and 72 h in the study.

[3] = male, RoRo Fuellinsdorf, rat, in vivo, po, 10 mg/kg
[4] = dogs, single oral, capsule, 120 mg/dog as free base, Protocol A, individual dogs
[5] = dogs, single oral, capsule, 120 mg/dog as free base, Protocol A, individual dogs, listed as hydrochloride salt
[6] = rats NJ97, NJ98, head prints (water, p.o), title: single oral in SSV, listed as Formula I (HCl salt)
[7] = rats NJ99, NJ100, head prints (water, i.p.), title: single oral in water, 9.3 mg/kg free base, listed as Formula I (HCl salt), 9.3 mg/kg
[8] = rats NJ101, NJ102, water, i.v., 9.3 mg/kg free base, listed as Formula I (HCl salt), 9.3 mg/kg

Cc1ccccc1-c1cc(N2CCN(C)CC2)ncc1N(C)C(=O)C(C)(C)c1cc(C(F)(F)F)cc(C(F)(F)F)c1 [Free Base, 2-(3,5-bis(trifluoromethyl)phenyl)-N,2-dimethyl-N-(6-(4-methylpiperazin-1-yl)-4-(o-tolyl)pyridin-3-yl)propanamide]
AUC (0-100 h) ([1]; male, dog, in vivo, po, 70 mg): 12800 ng·h/mL
AUC (0-Inf.) ([1]; male, dog, in vivo, po, 70 mg): 14500 ng·h/mL
Cmax ([1]; male, dog, in vivo, po, 70 mg): 667 ng/mL
T1/2 ([1]; male, dog, in vivo, po, 70 mg): 35.7 h
AUC(0-t) ([1]; male, dog, in vivo, po, 70 mg): 16200 ng·h/mL
AUC(0-inf) ([1]; male, dog, in vivo, po, 70 mg): 19300 ng·h/mL
Cmax ([1]; male, dog, in vivo, po, 70 mg, Cmax): 587 ng/mL
bioavailability ([1]; male, dog, in vivo, po, 70 mg, F (oral bioavailability)): 64%
half-life ([1]; male, dog, in vivo, po, 70 mg, T1/2): 40.4 h
Tmax ([1]; male, dog, in vivo, po, 70 mg, Tmax): 4 to 6 h
AUC (0-100 h) ([1]; male, dog, in vivo, po, 120 mg): 17400 ng·h/mL
AUC (0-Inf.) ([1]; male, dog, in vivo, po, 120 mg): 22600 ng·h/mL
Cmax ([1]; male, dog, in vivo, po, 120 mg): 757 ng/mL
T1/2 ([1]; male, dog, in vivo, po, 120 mg): 56.3 h
AUC(0-t) ([1]; male, dog, in vivo, po, 120 mg): 11000 ng·h/mL
AUC(0-inf) ([1]; male, dog, in vivo, po, 120 mg): 12700 ng·h/mL
Cmax ([1]; male, dog, in vivo, po, 120 mg, Cmax): 614 ng/mL
half-life ([1]; male, dog, in vivo, po, 120 mg, T1/2): 39.5 h
Tmax ([1]; male, dog, in vivo, po, 120 mg, Tmax): 2 h
half-life ([1]; male, dog, in vivo, po, apparent terminal half-lives): 36 to 56 h
bioavailability ([1]; male, dog, in vivo, po, oral (systemic) bioavailability): 34 to 83%
Cmax [2, 3]: 796 ng/mL
Tmax [2, 3]: 4 h
Cmax ([2]; male, RoRo Fuellinsdorf, rat, in vivo, po, 10 mg/kg, Cmax): 616 ng/mL
Tmax ([2]; male, RoRo Fuellinsdorf, rat, in vivo, po, 10 mg/kg, Tmax): 2.2 h

Cc1ccccc1-c1cc(N2CCN(C)CC2)ncc1N(C)C(=O)C(C)(C)c1cc(C(F)(F)F)cc(C(F)(F)F)c1.Cl [Hydrochloride]
AUC (0-100 h) [1, 4]: 25900 ng·h/mL and 20900 ng·h/mL
AUC (0-Inf.) [1, 4]: 36400 ng·h/mL and 26900 ng·h/mL
F (oral bioavailability) [1, 4]: 91.4% and 66.7%
T1/2 [1, 4]: 48.2 h
Cmax [1, 5]: 1110 ng/mL and 733 ng/mL
F (oral bioavailability) [1, 5]: 91% and 67%
T1/2 [1, 5]: 64 h and 44 h
Tmax [1, 5]: 1 h and 4 h
F ([2]; rats NJ97, NJ98, head prints (water, p.o), title: single oral in SSV, calculated with AUC 0-48 h, listed as Formula I (HCl salt)): 42.4% and 53.7%
AUC (0-48 h) [2, 6]: 12000 ng·h/mL and 15200 ng·h/mL
AUC (0-Inf. h) [2, 6]: 12800 ng·h/mL and 15800 ng·h/mL
Cmax [2, 6]: 616 ng/mL and 796 ng/mL
T1/2 [2, 6]: 11.6 h and 10.2 h
Tmax [2, 6]: 2.2 h and 4.0 h
AUC (0-48 h) [2, 7]: 26200 ng·h/mL and 20100 ng·h/mL
AUC (0-Inf. h) [2, 7]: 37900 ng·h/mL and 34000 ng·h/mL
Cmax [2, 7]: 933 ng/mL and 1060 ng/mL
F [2, 7]: 98.6% and 75.7%
T1/2 [2, 7]: 26.5 h and 27.1 h
Tmax [2, 7]: 6.3 h and 4.0 h
AUC (0-48 h) [2, 8]: 31700 ng·h/mL and 21400 ng·h/mL
AUC (0-Inf. h), **calculated with AUC (0-72 h) [2, 8]: 49300** ng · h/mL and 32300** ng · h/mL
CL* (calculated with AUC (0-24 h)) [2, 8]: 4.96 mL/min/kg and 7.35 mL/min/kg
T1/2, ***without 72 h concentration [2, 8]: 25.5*** h and 18.2*** h
Vz* (calculated with AUC (0-24 h)) [2, 8]: 11.0 L/kg and 11.5 L/kg
plasma concentrations at 72 h relative to those at 48 h ([2]; rats, i.v.): 4 times
mean apparent terminal half-life ([2]; rats, i.v., 9.4 mg/kg, n=4): 19.8 h
increase of plasma levels at 72 h post-dose over 48 h ([2]; rats, oral solution in water): very small
mean (±SD) apparent terminal half-life ([2]; rats, oral solution in water, 4 rats): 13.6 h
increase of plasma levels at 72 h post-dose over 48 h ([2]; rats, oral suspension in SSV): approximately 5 fold

Reference: US10676440B2, “Crystalline forms of an NK-1 antagonist” (Helsinn Healthcare SA, priority 2014, dated 2020)
